Our source for the IC50 values is patent US9481648B2, “Kinase inhibitors” (Respivert Limited, priority 2013, dated 2016).

Molecules are shown by their SMILES.

In the assay the target is GSK 3α (Homo sapiens (Human), UniProt P49840). The assay can be described thus: GSK 3α enzyme inhibition (FRET, Z-LYTE; Method 2). The conditions noted are these: read-out: IC50 Values for Enzyme Inhibition GSK3α. Format: biochemical. The procedure: The enzyme inhibitory activities of compounds disclosed herein are determined by FRET using synthetic peptides labelled with both donor and acceptor fluorophores (Z-LYTE, Invitrogen Ltd., Paisley, UK).
Chain of GSK 3α (P49840 whole entry, canonical isoform): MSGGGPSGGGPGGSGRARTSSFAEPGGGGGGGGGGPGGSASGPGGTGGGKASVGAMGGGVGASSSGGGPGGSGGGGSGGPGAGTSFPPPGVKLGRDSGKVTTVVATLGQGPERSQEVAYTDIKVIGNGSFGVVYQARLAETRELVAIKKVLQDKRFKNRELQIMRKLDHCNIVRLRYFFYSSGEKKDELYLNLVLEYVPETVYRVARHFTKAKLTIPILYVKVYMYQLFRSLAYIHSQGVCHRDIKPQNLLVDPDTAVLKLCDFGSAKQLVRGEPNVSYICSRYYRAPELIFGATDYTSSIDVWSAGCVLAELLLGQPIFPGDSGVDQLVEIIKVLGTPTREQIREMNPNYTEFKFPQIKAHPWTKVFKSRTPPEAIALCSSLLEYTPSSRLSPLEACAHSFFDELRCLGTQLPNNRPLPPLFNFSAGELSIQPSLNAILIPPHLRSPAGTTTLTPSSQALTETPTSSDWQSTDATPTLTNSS
The inhibitory activities of compounds of the invention against the GSK 3α enzyme isoform (Invitrogen), are evaluated by determining the level of activation I phosphorylation of the target peptide. The GSK3-α protein (500 ng/mL, 2.5 μL) is mixed with the test compound (2.5 μL at either 4 μg/mL, 0.4 μg/mL, 0.04 μg/mL, or 0.004 μg/mL) for 2 hr at RT. The FRET peptide (8 μM, 2.5 μL), which is a phosphorylation target for GSK3α, and ATP (40 μM, 2.5 μL) are then added to the enzyme\compound mixture and the resulting mixture incubated for 1 hr. Development reagent (protease, 5 μL) is added for 1 hr prior to detection in a fluorescence microplate reader (Varioskan® Flash, ThermoFisher Scientific).
In all cases, the site-specific protease cleaves non-phosphorylated peptide only and eliminates the FRET signal. Phosphorylation levels of each reaction are calculated using the ratio of coumarin emission (donor) over fluorescein emission (acceptor), for which high ratios indicate high phosphorylation and low ratios indicate low phosphorylation levels.
This method follows the same steps as Method 1 above, but utilises a shorter period of mixing of the test compound (105 minutes instead of 2 hours) with the GSK3-α protein. In addition, the concentrations of test compound employed are either 10 μg/mL, 1 μg/mL, 0.1 μg/mL, or 0.01 μg/mL
Usually IC50 stands for the concentration needed to halve the response being measured. Regarding `COCCOCCOCCOc1cc(Nc2nccc(Oc3ccc(NC(=O)Nc4cc(N5CCOCC5)ccc4OC)c4ccccc34)n2)cc(OC)c1` [Example 12, 1-(4-((2-((3-Methoxy-5-(2-(2-(2-methoxyethoxy)ethoxy)ethoxy)phenyl)amino)-pyrmidin-4-yl)oxy)naphthalen-1-yl)-3-(2-methoxy-5-morpholinophenyl)urea], the half-inhibitory concentration (IC50) amounted to 11300 nM. As for `COCCOCCOCCOc1cc(Nc2nccc(Oc3ccc(NC(=O)Nc4cc(C(C)(C)C)cc(C(=O)N(C)C)c4OC)c4ccccc34)n2)cc(OC)c1` [Example 19, 5-(tert-yl)-)-2-methoxy-3-(3-(4-((2-((3-methoxy-5-(2-(2-(2-methoxyethoxy)ethoxy)-ethoxy)phenyl)amino)pyrimidin-4-yl)oxy)naphthalen-1-yl)ureido-N,N-dimethylbenzamide], the IC50 amounted to 4430 nM.

`COCCOCCOCCOc1cc(Nc2nccc(Oc3ccc(NC(=O)Nc4cc(C(C)(C)C)cc(C(=O)O)c4OC)c4ccccc34)n2)cc(OC)c1` [Example 21, 5-(tert-Butyl)-2-methoxy-3-(3-(4-((2-((3-methoxy-5-(2-(2-(2-methoxyethoxy)ethoxy)-ethoxy)phenyl)amino)pyrimidin-4-yl)oxy)naphthalen-1-yl)ureido)benzoic acid]: the IC50 came out at 1630 nM.

As for `COCCOCCOCCOc1cc(Nc2nccc(Oc3ccc(NC(=O)Nc4cc(C(C)(C)C)cc(C#N)c4OC)c4ccccc34)n2)cc(OC)c1` [Example 22, 1-(5-(tert-Butyl)-3-cyano-2-methoxyphenyl)-3-(4-((2-((3-methoxy-5-(2-(2-(2-methoxy-ethoxy)ethoxy)ethoxy)phenyl)amino)pyrimidin-4-yl)oxy)naphthalen-1-yl)urea], the half-inhibitory concentration (IC50) came to 2140 nM. For `COCCOCCOCCOc1cc(Nc2nccc(Oc3ccc(NC(=O)Nc4cc(C(C)(C)C)cc(N)c4OC)c4ccccc34)n2)cc(OC)c1` [Example 25, 1-(3-Amino-5-(tert-butyl)-2-methoxyphenyl)-3-(4-((2-((3-methoxy-5-(2-(2-(2-methoxy-ethoxy)ethoxy)ethoxy)phenyl)amino)pyrimidin-4-yl)oxy)naphthalen-1-yl)urea], the IC50 was 1890 nM. For the compound `COc1cc(Nc2nccc(Oc3ccc(NC(=O)Nc4cc(C(C)(C)C)cc(NS(C)(=O)=O)c4OC)c4ccccc34)n2)cc(C(=O)NCCOCCOCCC(=O)O)c1` [Example 26], the IC50 amounted to 51 nM.

For `COCCOCCOCCOc1cc(Nc2nccc(Oc3ccc(NC(=O)Nc4cc(C(C)(C)C)cc(Nc5ncccn5)c4OC)c4ccccc34)n2)cc(OC)c1` [Example 28, 1-(5-(tert-Butyl)-2-methoxy-3-(pyrimidin-2-ylamino)phenyl)-3-(4-((2-((3-methoxy-5-(2-(2-(2-methoxyethoxy)ethoxy)ethoxy)phenyl)amino)pyrimidin-4-yl)oxy)naphthalen-1-yl)urea], the concentration for half-maximal inhibition (IC50) was determined as 3210 nM. For `COc1cc(Nc2nccc(Oc3ccc(NC(=O)Nc4cc(C(C)(C)C)cc(NS(C)(=O)=O)c4OC)c4ccccc34)n2)cc(OCCOCCOCCC(=O)O)c1` [Example 30, 3-(2-(2-(3-((4-((4-(3-(5-(tert-Butyl)-2-methoxy-3-(methylsulfonamido)phenyl)ureido)-naphthalen-1-yl)oxy)pyrimidin-2-yl)amino)-5-methoxyphenoxy)ethoxy)ethoxy)propanoic acid], the half-inhibitory concentration (IC50) was determined as 150 nM. As for `COc1cc(Nc2nccc(Oc3ccc(NC(=O)Nc4cc(C(C)(C)C)cc(NS(C)(=O)=O)c4OC)c4ccccc34)n2)cc(OCCOCCC(=O)O)c1` [Example 31, 3-(2-(3-((4-((4-(3-(5-(tert-Butyl)-2-methoxy-3-(methylsulfonamido)phenyl)ureido)-naphthalen-1-yl)oxy)pyrimidin-2-yl)amino)-5-methoxyphenoxy)ethoxy)propanoic acid], the IC50 came to 135 nM. On to `CNC(=O)c1cc(N2CCOCC2)cc(NC(=O)Nc2ccc(Oc3ccnc(Nc4cc(OC)cc(OCCOCCOCCOC)c4)n3)c3ccccc23)c1OC` [Example 32, 2-Methoxy-3-(3-(4-((2-((3-methoxy-5(2-(2-(2-methoxyethoxy)ethoxy)ethoxy)phenyl)-amino)pyrimidin-4-yl)oxy)naphthalen-1-yl)ureido)-N-methyl-5-morpholinobenzamide], for which the IC50 amounted to 629 nM. On to `COCCOCCOCCOc1cc(Nc2nccc(Oc3ccc(NC(=O)Nc4cc(C(C)(C)C)cc(C(=O)NCc5ccccc5)c4OC)c4ccccc34)n2)cc(OC)c1` [Example 38, N-Benzyl-5-(tert-butyl)-2-methoxy-3-(3-(4-((2-((3-methoxy-5-(2-(2-(2-methoxyethoxy)-ethoxy)ethoxy)phenyl)amino)pyrimidin-4-yl)oxy)naphthalen-1-yl)ureido)benzamide], for which the 50% inhibitory concentration (IC50) was 10700 nM. Turning to `COCCOCCOCCOCCOCCOCCOCCNC(=O)c1cc(Nc2nccc(Oc3ccc(NC(=O)Nc4cc(C(C)(C)C)cc(NS(C)(=O)=O)c4OC)c4ccccc34)n2)cc(OC)c1` [Example 40, 3-((4-((4-(3-(5-(tert-Butyl)-2-methoxy-3-(methylsulfonamido)phenyl)ureido)naphthalen-1-yl)oxy)pyrimidin-2-yl)amino)-N-(2,5,8,11,14,17,20-heptaoxadocosan-22-yl)-5-methoxy-benzamide], the IC50 was found to be 379 nM. On to `CCNC(=O)c1cc(C(C)(C)C)cc(NC(=O)Nc2ccc(Oc3ccnc(Nc4cc(OC)cc(OCCOCCOCCOC)c4)n3)c3ccccc23)c1OC` [Example 41, 5-(tert-Butyl)-N-ethyl-2-methoxy-3-(3-(4-((2-((3-methoxy-5-(2-(2-(2-methoxyethoxy)-ethoxy)ethoxy)phenyl)amino)pyrimidin-4-yl)oxy)naphthalen-1-yl)ureido)benzamide], for which the 50% inhibitory concentration (IC50) was determined as 446 nM. In the case of `COCCOCCOCCOc1cc(Nc2nccc(Oc3ccc(NC(=O)Nc4cc(C(C)(C)C)cc(C(=O)NC(C)C)c4OC)c4ccccc34)n2)cc(OC)c1` [Example 42, 5-(tert-Butyl)-N-isopropyl-2-methoxy-3-(3-(4-((2-((3-methoxy-5-(2-(2-(2-methoxyethoxy)-ethoxy)ethoxy)phenyl)amino)pyrimidin-4-yl)oxy)naphthalen-1-yl)ureido)benzamide] it was 705 nM; in that of `COCCNC(=O)c1cc(C(C)(C)C)cc(NC(=O)Nc2ccc(Oc3ccnc(Nc4cc(OC)cc(OCCOCCOCCOC)c4)n3)c3ccccc23)c1OC` [Example 43, 5-(tert-Butyl)-2-methoxy-3-(3-(4-((2-((3-methoxy-5-(2-(2-(2-methoxyethoxy)ethoxy)-ethoxy)phenyl)amino)pyrimidin-4-yl)oxy)naphthalen-1-yl)ureido)-N-(2-methoxyethyl)-benzamide], 520 nM. `COCCOCCOCCOc1cc(Nc2nccc(Oc3ccc(NC(=O)Nc4cc(C(C)(C)C)cc(C(=O)NCC(=O)O)c4OC)c4ccccc34)n2)cc(OC)c1` [Example 44, 2-(5-(tert-Butyl)-2-methoxy-3-(3-(4-((2-((3-methoxy-5-(2-(2-(2-methoxyethoxy)ethoxy)-ethoxy)phenyl)amino)pyrimidin-4-yl)oxy)naphthalen-1-yl)ureido)benzamido)acetic acid]: the concentration for half-maximal inhibition (IC50) worked out at 80 nM.

Turning to `COc1cc(Nc2nccc(Oc3ccc(NC(=O)Nc4cc(C(C)(C)C)cc(NS(C)(=O)=O)c4OC)c4ccccc34)n2)cc(C(=O)C2CC2)c1` [Example 50, N-(5-(tert-Butyl)-3-(3-(4-((2-((3-(cyclopropanecarbonyl)-5-methoxyphenyl)amino)-pyrimidin-4-yl)oxy)naphthalen-1-yl)ureido)-2-methoxyphenyl)methanesulfonamide], the 50% inhibitory concentration (IC50) was 13800 nM.
